Assay results as given in publication PMC4573970, “Further validation to support clinical translation of [^18F]FTC-146 for imaging sigma-1 receptors” (EJNMMI Research, 2015).

Columns and labels:
sigma-1 receptor (S1R) = target: T1, sigma-1 receptor (S1R) (Mus musculus, UniProt O55242); experiment: in vivo PET blocking of […]FTC-146 ([…] mg/kg), with S1R-KO control; format: cell-based
T1 construct: gene Sigmar1; native receptor in WT mouse brain

[1] = target: T2, vesicular acetylcholine transporter (VAChT) (Homo sapiens, UniProt Q16572)
T2 construct: gene SLC18A3
T2 sequence (Q16572 1-532): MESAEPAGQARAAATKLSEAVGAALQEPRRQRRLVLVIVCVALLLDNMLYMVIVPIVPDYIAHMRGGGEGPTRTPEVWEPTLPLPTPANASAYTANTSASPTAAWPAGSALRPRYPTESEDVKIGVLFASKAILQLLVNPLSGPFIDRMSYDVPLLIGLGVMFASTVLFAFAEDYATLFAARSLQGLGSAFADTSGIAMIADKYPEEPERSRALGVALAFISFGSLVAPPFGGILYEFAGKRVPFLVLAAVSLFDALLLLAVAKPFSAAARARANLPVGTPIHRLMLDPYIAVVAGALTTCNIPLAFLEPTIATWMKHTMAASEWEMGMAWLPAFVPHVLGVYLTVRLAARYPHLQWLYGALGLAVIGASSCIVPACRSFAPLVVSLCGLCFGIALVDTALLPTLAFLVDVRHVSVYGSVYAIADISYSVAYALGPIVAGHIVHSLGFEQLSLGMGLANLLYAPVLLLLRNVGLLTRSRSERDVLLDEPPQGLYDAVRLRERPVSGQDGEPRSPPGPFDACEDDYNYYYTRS

T1 sequence (O55242 whole entry): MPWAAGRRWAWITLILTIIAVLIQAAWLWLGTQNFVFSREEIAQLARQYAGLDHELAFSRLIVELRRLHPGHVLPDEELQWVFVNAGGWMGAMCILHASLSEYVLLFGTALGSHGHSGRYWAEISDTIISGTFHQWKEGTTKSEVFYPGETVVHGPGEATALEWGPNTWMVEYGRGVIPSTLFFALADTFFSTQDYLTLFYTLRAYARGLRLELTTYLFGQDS

Ki [1]	Compound	in vivo PET blocking of [18F]FTC-146 (1 mg/kg), with S1R-KO control (sigma-1 receptor (S1R))
	CN(C)CCN(C)CCc1ccc(Cl)c(Cl)c1 [BD1047]	following receptor blocking with a known S1R antagonist (BD-1047), showed similarly rapid washout of tracer
450 ± 80 nM	O=c1sc2cc(CCCF)ccc2n1CCN1CCCCCC1 [FTC-146]	
